Measured values: ChEMBL document CHEMBL5303573, “Mapping human microbiome drug metabolism by gut bacteria and their genes” (Nature, 2019)

Legend:
[1] = The drug is tested on Ruminococcus gnavus strain: ATCC29149 for biotransformation. The drug concentrations were measured before and after a 12-h incubation by liquid-chromatography-coupled mass spectrometry (LC–MS); settings: mediterraneibacter gnavus, 2 µM
[2] = The drug is tested on Providencia rettgeri strain: DSM1131 for biotransformation. The drug concentrations were measured before and after a 12-h incubation by liquid-chromatography-coupled mass spectrometry (LC–MS); type: ADME; set-up: dose 2 uM, timepoint 0 vs 12 hours; settings: 2 µM
[3] = The drug is tested on Bacteroides caccae strain: ATCC43185 for biotransformation. The drug concentrations were measured before and after a 12-h incubation by liquid-chromatography-coupled mass spectrometry (LC–MS); settings: 2 µM
[4] = The drug is tested on Clostridium symbiosum strain: ATCC14940 for biotransformation. The drug concentrations were measured before and after a 12-h incubation by liquid-chromatography-coupled mass spectrometry (LC–MS); settings: 2 µM
[5] = bacteroides thetaiotaomicron, 12 h, 2 µM
Description: The drug is tested on Bacteroides thetaiotaomicron strain: 7330 for biotransformation. The drug concentrations were measured before and after a 12-h incubation by liquid-chromatography-coupled mass spectrometry (LC–MS)

[6] = The drug is tested on Subdoligranulum variabile strain: DSM15176 for biotransformation. The drug concentrations were measured before and after a 12-h incubation by liquid-chromatography-coupled mass spectrometry (LC–MS); settings: 2 µM
[7] = The drug is tested on Bacteroides pectinophilus strain: ATCC43243 for biotransformation. The drug concentrations were measured before and after a 12-h incubation by liquid-chromatography-coupled mass spectrometry (LC–MS); settings: 2 µM
[8] = The drug is tested on Alistipes indistinctus strain: DSM22520 for biotransformation. The drug concentrations were measured before and after a 12-h incubation by liquid-chromatography-coupled mass spectrometry (LC–MS); settings: 2 µM
[9] = The drug is tested on Coprococcus comes strain: ATCC27758 for biotransformation. The drug concentrations were measured before and after a 12-h incubation by liquid-chromatography-coupled mass spectrometry (LC–MS); type: ADME; set-up: dose 2 uM, timepoint 0 vs 12 hours; settings: 2 µM
[10] = bacteroides fragilis, 12 h, 2 µM
Description: The drug is tested on Bacteroides fragilis strain: 3397 (T10) for biotransformation. The drug concentrations were measured before and after a 12-h incubation by liquid-chromatography-coupled mass spectrometry (LC–MS)

[11] = The drug is tested on Eubacterium ventriosum strain: ATCC27560 for biotransformation. The drug concentrations were measured before and after a 12-h incubation by liquid-chromatography-coupled mass spectrometry (LC–MS); type: ADME; set-up: dose 2 uM, timepoint 0 vs 12 hours; settings: 2 µM
[12] = The drug is tested on Clostridium ramosum strain: DSM1402 for biotransformation. The drug concentrations were measured before and after a 12-h incubation by liquid-chromatography-coupled mass spectrometry (LC–MS); settings: thomasclavelia ramosa, 2 µM
[13] = enterocloster bolteae, 12 h, 2 µM
Description: The drug is tested on Clostridium bolteae strain: ATCCBAA-613 for biotransformation. The drug concentrations were measured before and after a 12-h incubation by liquid-chromatography-coupled mass spectrometry (LC–MS)

[14] = The drug is tested on Escherichia coli strain: BW25113 for biotransformation. The drug concentrations were measured before and after a 12-h incubation by liquid-chromatography-coupled mass spectrometry (LC–MS); settings: 2 µM
[15] = bacteroides intestinalis, 12 h, 2 µM
Description: The drug is tested on Bacteroides intestinalis strain: DSM17393 for biotransformation. The drug concentrations were measured before and after a 12-h incubation by liquid-chromatography-coupled mass spectrometry (LC–MS)

[16] = The drug is tested on Ruminococcus lactaris strain: ATCC29176 for biotransformation. The drug concentrations were measured before and after a 12-h incubation by liquid-chromatography-coupled mass spectrometry (LC–MS); settings: 2 µM
[17] = The drug is tested on Enterobacter cancerogenus strain: ATCC35316 for biotransformation. The drug concentrations were measured before and after a 12-h incubation by liquid-chromatography-coupled mass spectrometry (LC–MS); settings: 2 µM
[18] = parabacteroides johnsonii, 12 h, 2 µM
Description: The drug is tested on Parabacteroides johnsonii strain: DSM18315 for biotransformation. The drug concentrations were measured before and after a 12-h incubation by liquid-chromatography-coupled mass spectrometry (LC–MS)

[19] = The drug is tested on Edwardsiella tarda strain: ATCC23685 for biotransformation. The drug concentrations were measured before and after a 12-h incubation by liquid-chromatography-coupled mass spectrometry (LC–MS); settings: 2 µM

Row | Bacterial Biotransformation [1] | Bacterial Biotransformation [2] | Bacterial Biotransformation [3] | Bacterial Biotransformation [4] | Bacterial Biotransformation [5] | Bacterial Biotransformation [6] | Bacterial Biotransformation [7] | Bacterial Biotransformation [8] | Bacterial Biotransformation [9] | Bacterial Biotransformation [10] | Bacterial Biotransformation [11] | Bacterial Biotransformation [12] | Bacterial Biotransformation [13] | Bacterial Biotransformation [14] | Bacterial Biotransformation [15] | Bacterial Biotransformation [16] | Bacterial Biotransformation [17] | Bacterial Biotransformation [18] | Bacterial Biotransformation [19] | SMILES
1 | Compound NOT metabolized | Compound NOT metabolized | Compound NOT metabolized | Compound NOT metabolized | Compound NOT metabolized | Compound metabolized | Compound NOT metabolized | Compound NOT metabolized | Compound NOT metabolized | Compound metabolized | Compound NOT metabolized | Compound NOT metabolized | Compound metabolized | Compound NOT metabolized | Compound metabolized | Compound NOT metabolized | Compound NOT metabolized | Compound metabolized | – | Cc1nc(Nc2ncc(C(=O)Nc3c(C)cccc3Cl)s2)cc(N2CCN(CCO)CC2)n1.O [DASATINIB]
2 | Compound NOT metabolized | Compound NOT metabolized | Compound NOT metabolized | Compound NOT metabolized | – | Compound NOT metabolized | Compound NOT metabolized | Compound NOT metabolized | Compound NOT metabolized | – | Compound NOT metabolized | Compound NOT metabolized | Compound NOT metabolized | Compound NOT metabolized | Compound NOT metabolized | – | Compound NOT metabolized | Compound NOT metabolized | Compound NOT metabolized | COC(=O)Nc1nc2ccc(C(=O)c3ccccc3)cc2[nH]1 [MEBENDAZOLE]
3 | Compound NOT metabolized | Compound NOT metabolized | Compound NOT metabolized | Compound NOT metabolized | Compound NOT metabolized | Compound NOT metabolized | Compound NOT metabolized | Compound NOT metabolized | – | Compound NOT metabolized | Compound NOT metabolized | Compound NOT metabolized | Compound NOT metabolized | Compound NOT metabolized | Compound NOT metabolized | Compound NOT metabolized | Compound NOT metabolized | Compound NOT metabolized | Compound NOT metabolized | COc1ccccc1N1CCN(CC(O)COc2cccc3ccccc23)CC1 (stereo unspecified) [NAFTOPIDIL]
4 | Compound NOT metabolized | Compound NOT metabolized | Compound NOT metabolized | Compound NOT metabolized | Compound NOT metabolized | Compound NOT metabolized | Compound NOT metabolized | Compound NOT metabolized | Compound NOT metabolized | Compound NOT metabolized | Compound NOT metabolized | Compound NOT metabolized | Compound NOT metabolized | Compound NOT metabolized | Compound NOT metabolized | Compound NOT metabolized | Compound NOT metabolized | Compound NOT metabolized | Compound NOT metabolized | CCc1nn(CCCN2CCN(c3cccc(Cl)c3)CC2)c(=O)n1CCOc1ccccc1 [NEFAZODONE]
